{
  "source": "patent US20070299084A1",
  "about": "“Indole Derivatives Useful for Treating Resistance to Antitumor Agents” (NIKEM RESE S.R.L., priority 2004, published 2007)",
  "key": {"[1]": {"tested_on": "HepG2 cells (human hepatic carcinoma)", "assay": "Antiproliferative activity, 48 h treatment, ATPlite luminescence assay, HepG2", "type": "cell-based", "conditions": "Homo sapiens, HepG2, read-out: Antiproliferative activity (IC50 ± S.D., μM) HepG2", "experimental": "HepG2: maintained in EMEM medium+10% FCS.\n(§1) 24 hours after seeding, an aliquot (10 μl) of the drug at the various concentrations is added (for each concentration there are 3 replicates). After 48 hours of treatment the antiproliferative effect is evaluated with a luminescence assay (Perkin Elmer Life Sciences ATPlite):\n(§2) 50 μl of a lysis solution are added to each well followed by an equal volume of a solution containing luciferase and D-luciferin. The ATP present in all the metabolically active cells brings about the transformation reaction of D-luciferin, catalysed by luciferase, to produce a luminescent signal as described in the following scheme: ATP+D-luciferin+O2→Oxyluciferin+AMP+PPi+CO2+Light\n(§3) The luminescence produced (expressed in counts per second, CPS) is measured by means of a microplate scintillation analyzer (Perkin Elmer Life Sciences Top Count).\n(§4) Percentage inhibition of luminescence in the treated cells compared to the control is calculated; concentration-response curves are then analysed using Grafit v.5.0."}, "[2]": {"assay": "Drug tolerability in H460 tumor-bearing mice (lethal toxicity)", "conditions": "athymic Swiss nude, mouse, in vivo, 8 weeks", "experimental": "The effects of the compounds of the invention and/or topotecan on the growth of primary tumors and spontaneous lung metastasis were tested in mice inoculated s.c. in the right flank with H460 ascitic tumor cells (2×10^6/mouse). Each control or drug-treated group included 9-11 mice. The s.c. tumor growth was followed by biweekly measurements of tumor diameters with a Vernier caliper. Drug treatment was delivered orally, for 8 weeks, from day 1. Topotecan was delivered at the dose of 1 mg/kg and compounds of the invention were delivered at the dose of 30 mg/kg; in the combination group the compounds of the invention were delivered almost 1 hour after topotecan treatment. Control mice were solvent-treated orally in parallel with drug treatments.\nDrug efficacy was assessed as mean percentage tumor weight inhibition in drug-treated versus control mice expressed as tumor weight inhibition % (TWI %)=100−(mean tumor weight treated/mean tumor weight control×100), evaluated during and after drug treatment. Drug tolerability was assessed in tumor-bearing mice as either lethal toxicity, i.e., any death in treated mice occurring before any control death, or percentage body weight loss (BWL %)=100−(body weight on day x/body weight on day 1×100), where x represents a day after or during the treatment period."}, "HT29 line": {"tested_on": "HT29 line", "assay": "Apoptosis experiment (Tunel)", "type": "cell-based, human", "experimental": "1.5×10^6 cells/sample are seeded. After 24 hours the cells are treated with the compounds for 48 or 72 hours. At the end of the treatment, the cells are detached with Trypsin/EDTA, washed in PBS (phosphate buffered solution) and incubated for 45 minutes at room temperature in 1 ml of 4% paraformaldehyde.\nThe cells are then washed with PBS and resuspended in 100 μl of permeabilizing solution (0.1% triton in 0.1% sodium citrate) for 2 minutes in ice. After a further wash, the cells are resuspended in 50 μl of Tunel reaction mix (Boehringer Mannheim) and left at 37° C. for 1 hour in the dark. After washing in PBS, the cells are resuspended in PBS and analysed by cytofluorimeter or examined by fluorescence microscope."}, "[3]": {"tested_on": "SK-N-BE(2) cells (human neuroblastoma)", "assay": "Antiproliferative activity, 48 h treatment, ATPlite luminescence assay, SK-N-BE(2)", "type": "cell-based", "conditions": "Homo sapiens, SKNBE2, 48 h, read-out: Antiproliferative activity (IC50 ± S.D., μM) SK-N-BE(2)", "experimental": "(§5) SH-SY5Y and SK-N-BE(2): maintained in HAM-F12 medium+10% FCS.\nas §1, §2, §3, §4"}, "[4]": {"tested_on": "H460 cells (human lung carcinoma)", "assay": "Invasion assay (Matrigel chemoinvasion)", "type": "cell-based", "experimental": "(§6) Human Lung Carcinoma:H460: maintained in RPMI1640 medium+10% FCS.\n(§7) H460 cells were seeded in complete medium and treated with different compound concentrations for 24 h. Then, cells were harvested and transferred to 24-well Transwell chambers (Costar) in serum-free medium in the following ways:\ninvasion assay: Transwell membranes were coated with 12.5 μg/well of Matrigel (BD Biosciences) and dried for 24 h. After this, 2.4×10^5 cells/well were seeded onto the artificial basement membrane in upper chamber, and drug was added as described for migration assay. After 24 h of incubation at 37° C., cells that invaded the Matrigel and migrated to the lower chamber were stained and counted as described for migration assay."}, "[5]": {"tested_on": "H460 cells (human lung carcinoma)", "assay": "Migration assay (Transwell chemotaxis)", "type": "cell-based", "conditions": "after 24 h incubation", "experimental": "as §6, §7\nmigration assay: 1.2×10^5 cells/well were seeded in the upper chamber, and the drug was added, in the same concentrations utilized before, in both upper and lower chambers. After 4 h of incubation at 37° C., migrated cells were fixed in 95% ethanol, stained with a 2% crystal violet in 70% ethanol solution, and counted by an inverted microscope."}, "[6]": {"tested_on": "LoVo cells (human colon carcinoma)", "assay": "Antiproliferative activity, 72 h treatment, SRB assay, LoVo", "type": "cell-based", "description": "LoVo and LoVo/Dx (line obtained by prolonged exposure to doxorubicin and characterised by overerexpression of P-glycoprotein, which confers resistance to doxorubicin): maintained in HAM-F12 medium+10% FCS."}, "[7]": {"tested_on": "SH-SY5Y cells (human neuroblastoma)", "assay": "Antiproliferative activity, 48 h treatment, ATPlite luminescence assay, SH-SY5Y", "type": "cell-based", "conditions": "Homo sapiens, SH-SY5Y, 48 h, read-out: Antiproliferative activity (IC50 ± S.D., μM) SHSY-5Y", "experimental": "as §5, §1, §2, §3, §4"}, "[8]": {"tested_on": "A2780 cells (human ovarian carcinoma)", "assay": "Antiproliferative activity, 48 h treatment, ATPlite luminescence assay, A2780", "type": "cell-based", "conditions": "Homo sapiens, A2780, 48 h, read-out: Antiproliferative activity (IC50 ± S.D., μM) A2780", "experimental": "as §1, §2, §3, §4"}},
  "data": [
    {"smiles": "CCOc1cc(C(=O)NC2CC(C)(C)NC(C)(C)C2)ccc1-c1cc2cc(Cl)c(Cl)cc2[nH]1", "note": "[Example 2]", "values": [
      {"measurement": "IC50", "setting": "[1]", "value": "2 ± 0.1", "unit": "µM"},
      {"measurement": "Tox/Tot (any death in treated mice occurring before any control mice)", "setting": "[2]", "value": "0/10"},
      {"measurement": "Induction of apoptosis", "setting": "HT29 line", "value": "high level of apoptosis"},
      {"measurement": "IC50", "setting": "[3]", "value": "3.7 ± 0.2", "unit": "µM"},
      {"measurement": "inhibition at 2.2 µM", "setting": "[4]; NCI-H460, 2.2 μM", "value": 92, "unit": "%"},
      {"measurement": "inhibition at 5.7 µM", "setting": "[4]; NCI-H460, 5.7 μM", "value": 100, "unit": "%"},
      {"measurement": "inhibition at 2.2 µM", "setting": "[5]; NCI-H460, 2.2 μM", "value": 51, "unit": "%"},
      {"measurement": "inhibition at 5.7 µM", "setting": "[5]; NCI-H460, 5.7 μM", "value": 92, "unit": "%"},
      {"measurement": "IC50", "setting": "[6]; Homo sapiens, LoVo, 72 h, read-out: Antiproliferative activity (IC50 ± S.D., μM) LoVo", "value": "2.4 ± 1.4", "unit": "µM"},
      {"measurement": "Interaction with SN38", "setting": "[6]; LoVo line", "value": "synergism"},
      {"measurement": "Interaction with taxol", "setting": "[6]; LoVo line", "value": "synergism"},
      {"measurement": "IC50", "setting": "[7]", "value": "6.8 ± 0.5", "unit": "µM"},
      {"measurement": "IC50", "setting": "[8]", "value": "1.9 ± 0.1", "unit": "µM"}
    ]}
  ]
}
